Source: BindingDB's records for patent US20250115607 (Hoffmann-La Roche, 2025)

Experiments:
Test in all cases: Phosphorylation Assay SIK1-3
[1] = biological target: Serine/threonine-protein kinase SIK1 (Homo sapiens, UniProt P57059)
Experimental: (§1) In the presence of SIK2 (resp. SIK1 or SIK3) and ATP the CHK-peptide ([…] with C-terminal arginine amide modification) were phosphorylated at one of the four feasible serine's. Only one phosphorylation is observed under the assay conditions. 60 nl of each compound dilution series (12 point; dilution factor 3, generally 30 μM to 170 pM) in DMSO were transferred by acoustic dispensing to the assay plate and 30 minutes pre-incubated (ambient temperature) after the addition of 5 μl SIK1 (5 nM) resp. 5 μl SIK2 (0.5 nM) or 7 μl SIK3 (1.5 nM) in assay-buffer (12.5 mM HEPES (pH 7.0), 10 mM magnesium acetate, 0.005% BSA). 10 μM CHK-peptide solution and 5 μl of 100 μM ATP for SIK1 & SIK2 resp. 3 μl for SIK3 in assay-buffer were added and incubated ambient for 45 minutes. 40 μl of 0.125% formic acid in water were added to quench the reaction. RapidFire (RF) Mass Spectrometry was utilized for data generation as described below. The multiple charged species (3-5 charges) for the phosphorylated and non-phosphorylated form measured by MRM (Multiple Reaction Monitoring; API5000 or 6500+) or EIC (Extracted Ion Current; QToF) were summed up and the ratio calculated (sum phosphorylated species/sum all species) for data evaluation. Normalization was performed by Genedata software based on the non-inhibition control DMSO and the commercially available STK inhibitor @1 μM YKL-05-099 (CAS number 1936529-65-5).

[2] = biological target: Serine/threonine-protein kinase SIK2 (Homo sapiens, UniProt Q9H0K1)
Experimental: as §1

[3] = biological target: Serine/threonine-protein kinase SIK3 (Homo sapiens, UniProt Q9Y2K2)
Experimental: as §1

Chain of Serine/threonine-protein kinase SIK2 (Q9H0K1 whole entry): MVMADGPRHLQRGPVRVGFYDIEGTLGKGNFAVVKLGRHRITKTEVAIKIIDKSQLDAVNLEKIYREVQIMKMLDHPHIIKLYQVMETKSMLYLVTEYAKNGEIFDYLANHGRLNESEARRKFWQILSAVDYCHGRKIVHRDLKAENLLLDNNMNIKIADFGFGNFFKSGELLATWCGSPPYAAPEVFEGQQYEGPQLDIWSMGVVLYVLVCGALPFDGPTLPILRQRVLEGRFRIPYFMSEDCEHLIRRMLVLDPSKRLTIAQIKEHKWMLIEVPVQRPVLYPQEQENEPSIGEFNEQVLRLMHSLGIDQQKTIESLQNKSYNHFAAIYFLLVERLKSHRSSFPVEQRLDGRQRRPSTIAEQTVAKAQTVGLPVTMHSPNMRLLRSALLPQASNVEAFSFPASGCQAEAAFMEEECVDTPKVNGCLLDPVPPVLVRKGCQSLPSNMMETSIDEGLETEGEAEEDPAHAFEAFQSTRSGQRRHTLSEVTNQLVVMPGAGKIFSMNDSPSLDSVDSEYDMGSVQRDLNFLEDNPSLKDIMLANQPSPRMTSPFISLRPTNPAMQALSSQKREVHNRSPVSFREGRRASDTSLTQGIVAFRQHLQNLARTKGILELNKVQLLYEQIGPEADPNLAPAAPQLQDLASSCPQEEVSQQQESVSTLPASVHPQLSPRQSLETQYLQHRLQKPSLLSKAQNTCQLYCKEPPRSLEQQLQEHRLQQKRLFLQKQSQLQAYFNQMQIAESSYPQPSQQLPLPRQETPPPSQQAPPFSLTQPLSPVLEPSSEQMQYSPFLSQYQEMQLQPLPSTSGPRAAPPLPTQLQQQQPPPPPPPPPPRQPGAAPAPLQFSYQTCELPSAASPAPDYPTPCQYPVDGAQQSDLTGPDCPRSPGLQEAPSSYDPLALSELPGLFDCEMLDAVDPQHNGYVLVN
Chain of Serine/threonine-protein kinase SIK3 (Q9Y2K2 whole entry): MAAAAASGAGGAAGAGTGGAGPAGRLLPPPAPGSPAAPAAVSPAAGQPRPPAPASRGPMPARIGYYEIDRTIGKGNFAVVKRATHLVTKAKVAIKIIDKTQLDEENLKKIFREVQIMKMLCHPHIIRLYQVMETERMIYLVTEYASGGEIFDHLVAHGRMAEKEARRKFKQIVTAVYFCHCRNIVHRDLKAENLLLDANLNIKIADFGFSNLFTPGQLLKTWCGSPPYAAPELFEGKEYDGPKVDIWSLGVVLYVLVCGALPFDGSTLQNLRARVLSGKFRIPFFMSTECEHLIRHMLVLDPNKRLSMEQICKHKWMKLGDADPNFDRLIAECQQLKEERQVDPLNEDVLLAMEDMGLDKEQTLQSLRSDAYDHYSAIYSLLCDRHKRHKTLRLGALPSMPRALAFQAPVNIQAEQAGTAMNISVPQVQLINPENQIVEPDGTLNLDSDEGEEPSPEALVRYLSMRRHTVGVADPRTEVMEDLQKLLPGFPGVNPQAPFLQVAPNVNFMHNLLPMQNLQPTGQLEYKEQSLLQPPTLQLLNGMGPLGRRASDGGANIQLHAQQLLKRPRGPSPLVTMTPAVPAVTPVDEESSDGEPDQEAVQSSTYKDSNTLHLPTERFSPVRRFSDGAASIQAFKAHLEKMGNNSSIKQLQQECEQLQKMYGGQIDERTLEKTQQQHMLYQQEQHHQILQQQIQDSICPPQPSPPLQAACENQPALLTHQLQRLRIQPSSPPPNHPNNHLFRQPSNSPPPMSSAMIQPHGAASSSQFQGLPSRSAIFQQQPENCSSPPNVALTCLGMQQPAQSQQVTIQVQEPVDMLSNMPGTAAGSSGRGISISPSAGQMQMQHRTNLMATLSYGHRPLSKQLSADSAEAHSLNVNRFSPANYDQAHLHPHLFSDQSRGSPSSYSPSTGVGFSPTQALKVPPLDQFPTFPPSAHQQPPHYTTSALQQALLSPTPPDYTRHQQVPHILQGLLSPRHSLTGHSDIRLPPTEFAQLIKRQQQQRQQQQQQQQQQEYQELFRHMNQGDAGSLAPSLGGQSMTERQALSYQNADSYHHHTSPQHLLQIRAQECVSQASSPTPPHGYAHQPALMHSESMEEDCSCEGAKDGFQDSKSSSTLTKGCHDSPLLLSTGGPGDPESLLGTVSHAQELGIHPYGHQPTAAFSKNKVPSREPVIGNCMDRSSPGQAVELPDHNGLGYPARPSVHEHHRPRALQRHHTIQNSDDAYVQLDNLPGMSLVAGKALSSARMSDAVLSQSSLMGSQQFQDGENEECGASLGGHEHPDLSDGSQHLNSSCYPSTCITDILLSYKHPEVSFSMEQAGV
Chain of Serine/threonine-protein kinase SIK1 (P57059 whole entry): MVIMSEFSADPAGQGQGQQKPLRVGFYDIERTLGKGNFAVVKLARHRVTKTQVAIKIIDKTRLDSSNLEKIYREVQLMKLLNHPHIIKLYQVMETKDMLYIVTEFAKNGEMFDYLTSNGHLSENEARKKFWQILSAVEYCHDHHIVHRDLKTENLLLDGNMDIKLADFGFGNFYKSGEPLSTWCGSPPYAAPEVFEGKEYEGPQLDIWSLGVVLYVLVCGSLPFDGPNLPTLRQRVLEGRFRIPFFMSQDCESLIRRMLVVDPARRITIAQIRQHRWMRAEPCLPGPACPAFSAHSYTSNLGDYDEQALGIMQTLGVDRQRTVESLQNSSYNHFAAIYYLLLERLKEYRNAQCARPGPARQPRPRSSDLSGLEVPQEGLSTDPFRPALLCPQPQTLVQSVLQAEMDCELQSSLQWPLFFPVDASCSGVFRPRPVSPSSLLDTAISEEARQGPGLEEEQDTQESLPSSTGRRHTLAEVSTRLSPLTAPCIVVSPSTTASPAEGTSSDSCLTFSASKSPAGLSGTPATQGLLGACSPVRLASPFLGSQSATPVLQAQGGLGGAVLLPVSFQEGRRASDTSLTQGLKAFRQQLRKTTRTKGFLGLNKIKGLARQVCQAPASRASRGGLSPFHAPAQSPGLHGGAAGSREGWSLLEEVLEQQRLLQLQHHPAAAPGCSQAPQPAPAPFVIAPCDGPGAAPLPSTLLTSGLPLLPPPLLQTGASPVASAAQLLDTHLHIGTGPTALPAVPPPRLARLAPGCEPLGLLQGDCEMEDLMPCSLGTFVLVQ

CC(=O)c1ccc(-n2cnc3cc(N(C)c4ccc(C)nn4)ncc32)nc1-n1nc(C#N)cc1C [US20250115607, Example 5] showed an IC50 [1] of 19000 nM, an IC50 [2] of 687 nM and an IC50 [3] of 2060 nM.
